Values of other authors in patent publication US20240325308A1, “AMNIOTIC FLUID STABILIZED COMPOSITIONS AND METHODS FOR IN UTERO DELIVERY OF THERAPEUTIC AGENTS” (The Trustees of the University of Pennsylvania, priority 2021, published 2024).

System: fetal lung
Conditions: vitelline vein injection, gestational age E16 fetuses

## CCCCCCCCCCCCC(O)CN(CCOCCN(CC(O)CCCCCCCCCCCC)CC(O)CCCCCCCCCCCC)CCN1CCN(CCOCCN(CC(O)CCCCCCCCCCCC)CC(O)CCCCCCCCCCCC)CC1 (stereo not shown) [B-4, 1,1′-((2-(2-(4-(2-((2-(2-(bis(2-hydroxytetradecyl)amino)ethoxy)ethyl)(2-hydroxytetradecyl)amino)ethyl)piperazin-1-yl)ethoxy)ethyl)azanediyl)bis(tetradecan-2-ol)]
  Fetal lung delivery of LNPs formulated with the ionizable lipid: highest fetal lung delivery
